Laboratory results from patent publication US9156845B2, “4-(substituted amino)-7H-pyrrolo[2,3-d] pyrimidines as LRRK2 inhibitors” (Pfizer Inc., priority 2012, dated 2015).

Columns and labels:
[1] = target: GST-tagged truncated LRRK2 (Homo sapiens (Human), UniProt Q5S007); experiment: LRRK2 Lantha Screen kinase assay; format: biochemical; details: geometric mean of 2-5 determinations unless otherwise indicated (a: >=6 determinations; b: single determination); read-out: LRRK2 WT IC50
GCK = GCK (Homo sapiens (Human), UniProt Q12851); experiment: ActivX kinase probe assay (human PBMC); format: binding; details: GCK, read-out: percent inhibition
JNK1, JNK2, JNK3 = experiment: ActivX kinase probe assay (human PBMC); format: binding
Erk5 = Erk5 (Homo sapiens (Human), UniProt Q13164); experiment: ActivX kinase probe assay (human PBMC); format: binding; details: Erk5, read-out: percent inhibition
RSK1, RSK2, RSK3 domain1 = experiment: ActivX kinase probe assay (human PBMC); format: binding
RSK2 domain2 = RSK2 domain2 (Homo sapiens (Human), UniProt P51812); experiment: ActivX kinase probe assay (human PBMC); format: binding; details: RSK2 domain2, read-out: percent inhibition
NuaK2 = NuaK2 (Homo sapiens (Human), UniProt Q9H093); experiment: ActivX kinase probe assay (human PBMC); format: binding; details: NuaK2, read-out: percent inhibition
PAN3 = PAN3 (Homo sapiens (Human), UniProt Q58A45); experiment: ActivX kinase probe assay (human PBMC); format: binding; details: PAN3, read-out: percent inhibition
CDC2 = CDC2 (Homo sapiens (Human), UniProt P06493); experiment: ActivX kinase probe assay (human PBMC); format: binding; details: CDC2, read-out: percent inhibition
GSK3B = GSK3B (Homo sapiens (Human), UniProt P49841); experiment: ActivX kinase probe assay (human PBMC); format: binding; details: GSK3B, read-out: percent inhibition
ULK3 = ULK3 (Homo sapiens (Human), UniProt Q6PHR2); experiment: ActivX kinase probe assay (human PBMC); format: binding; details: ULK3, read-out: percent inhibition
PIK3CG = PIK3CG (Homo sapiens (Human), UniProt P48736); experiment: ActivX kinase probe assay (human PBMC); format: binding; details: PIK3CG, read-out: percent inhibition
SMG1 = SMG1 (Homo sapiens (Human), UniProt Q96Q15); experiment: ActivX kinase probe assay (human PBMC); format: binding; details: SMG1, read-out: percent inhibition
SRC = SRC (Homo sapiens (Human), UniProt P12931); experiment: ActivX kinase probe assay (human PBMC); format: binding; details: SRC, read-out: percent inhibition
RSKL1 domain1 = RSKL1 domain1 (Homo sapiens (Human), UniProt Q96S38); experiment: ActivX kinase probe assay (human PBMC); format: binding; details: RSKL1 domain1, read-out: percent inhibition
SLK = SLK (Homo sapiens (Human), UniProt Q9H2G2); experiment: ActivX kinase probe assay (human PBMC); format: binding; details: SLK, read-out: percent inhibition
NDR1 = NDR1 (Homo sapiens (Human), UniProt Q15208); experiment: ActivX kinase probe assay (human PBMC); format: binding; details: NDR1, read-out: percent inhibition
FES = FES (Homo sapiens (Human), UniProt P07332); experiment: ActivX kinase probe assay (human PBMC); format: binding; details: FES, read-out: percent inhibition
NEK9 = NEK9 (Homo sapiens (Human), UniProt Q8TD19); experiment: ActivX kinase probe assay (human PBMC); format: binding; details: NEK9, read-out: percent inhibition
Wnk1, Wnk2, Wnk4 = experiment: ActivX kinase probe assay (human PBMC); format: binding
RIPK3 = RIPK3 (Homo sapiens (Human), UniProt Q9Y572); experiment: ActivX kinase probe assay (human PBMC); format: binding; details: RIPK3, read-out: percent inhibition
PIK3C3 = PIK3C3 (Homo sapiens (Human), UniProt Q8NEB9); experiment: ActivX kinase probe assay (human PBMC); format: binding; details: PIK3C3, read-out: percent inhibition
CDK2 = CDK2 (Homo sapiens (Human), UniProt P24941); experiment: ActivX kinase probe assay (human PBMC); format: binding; details: CDK2, read-out: percent inhibition
MAP2K1 = MAP2K1 (Homo sapiens (Human), UniProt Q02750); experiment: ActivX kinase probe assay (human PBMC); format: binding; details: MAP2K1, read-out: percent inhibition
MLK3 = MLK3 (Homo sapiens (Human), UniProt Q16584); experiment: ActivX kinase probe assay (human PBMC); format: binding; details: MLK3, read-out: percent inhibition
eEF2K = eEF2K (Homo sapiens (Human), UniProt O00418); experiment: ActivX kinase probe assay (human PBMC); format: binding; details: eEF2K, read-out: percent inhibition
TLK1 = TLK1 (Homo sapiens (Human), UniProt Q9UKI8); experiment: ActivX kinase probe assay (human PBMC); format: binding; details: TLK1, read-out: percent inhibition
LRRK2 = LRRK2 (Homo sapiens (Human), UniProt Q5S007); experiment: ActivX kinase probe assay (human PBMC); format: binding; details: read-out: percent inhibition
JAK1 domain2 = JAK1 domain2 (Homo sapiens (Human), UniProt P23458); experiment: ActivX kinase probe assay (human PBMC); format: binding; details: JAK1 domain2, read-out: percent inhibition
ZAP70 = ZAP70 (Homo sapiens (Human), UniProt P43403); experiment: ActivX kinase probe assay (human PBMC); format: binding; details: ZAP70, read-out: percent inhibition
NDR2 = NDR2 (Homo sapiens (Human), UniProt Q9Y2H1); experiment: ActivX kinase probe assay (human PBMC); format: binding; details: NDR2, read-out: percent inhibition
CaMK2g = CaMK2g (Homo sapiens (Human), UniProt Q13555); experiment: ActivX kinase probe assay (human PBMC); format: binding; details: CaMK2g, read-out: percent inhibition
Wnk1, Wnk2, Wnk3 = experiment: ActivX kinase probe assay (human PBMC); format: binding
TBK1 = TBK1 (Homo sapiens (Human), UniProt Q9UHD2); experiment: ActivX kinase probe assay (human PBMC); format: binding; details: TBK1, read-out: percent inhibition

PIK3C3, sequence (Q8NEB9 whole entry): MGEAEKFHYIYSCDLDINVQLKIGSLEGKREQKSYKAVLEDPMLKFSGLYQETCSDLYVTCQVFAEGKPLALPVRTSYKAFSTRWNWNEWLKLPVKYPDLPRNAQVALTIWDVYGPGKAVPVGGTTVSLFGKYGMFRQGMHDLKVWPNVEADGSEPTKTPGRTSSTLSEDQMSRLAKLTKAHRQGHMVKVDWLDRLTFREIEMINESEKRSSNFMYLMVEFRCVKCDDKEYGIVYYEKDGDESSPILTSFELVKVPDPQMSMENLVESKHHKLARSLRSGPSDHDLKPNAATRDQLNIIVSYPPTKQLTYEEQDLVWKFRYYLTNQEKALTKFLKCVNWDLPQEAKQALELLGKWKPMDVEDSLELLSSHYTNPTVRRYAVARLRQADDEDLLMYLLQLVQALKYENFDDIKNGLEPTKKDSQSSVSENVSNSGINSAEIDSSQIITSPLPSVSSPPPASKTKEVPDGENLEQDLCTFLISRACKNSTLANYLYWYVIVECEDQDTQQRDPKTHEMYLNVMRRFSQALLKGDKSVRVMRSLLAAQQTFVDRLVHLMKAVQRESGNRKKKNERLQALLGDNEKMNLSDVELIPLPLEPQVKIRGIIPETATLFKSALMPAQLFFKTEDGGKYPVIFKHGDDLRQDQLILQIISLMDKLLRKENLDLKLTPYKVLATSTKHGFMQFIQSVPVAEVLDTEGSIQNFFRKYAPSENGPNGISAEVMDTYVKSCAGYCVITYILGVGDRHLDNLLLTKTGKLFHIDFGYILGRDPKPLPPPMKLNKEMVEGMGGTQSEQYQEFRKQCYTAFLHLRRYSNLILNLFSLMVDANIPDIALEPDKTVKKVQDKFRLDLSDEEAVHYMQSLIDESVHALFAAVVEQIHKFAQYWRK
RSK2 domain2, sequence (P51812 whole entry, the tested form may be a part): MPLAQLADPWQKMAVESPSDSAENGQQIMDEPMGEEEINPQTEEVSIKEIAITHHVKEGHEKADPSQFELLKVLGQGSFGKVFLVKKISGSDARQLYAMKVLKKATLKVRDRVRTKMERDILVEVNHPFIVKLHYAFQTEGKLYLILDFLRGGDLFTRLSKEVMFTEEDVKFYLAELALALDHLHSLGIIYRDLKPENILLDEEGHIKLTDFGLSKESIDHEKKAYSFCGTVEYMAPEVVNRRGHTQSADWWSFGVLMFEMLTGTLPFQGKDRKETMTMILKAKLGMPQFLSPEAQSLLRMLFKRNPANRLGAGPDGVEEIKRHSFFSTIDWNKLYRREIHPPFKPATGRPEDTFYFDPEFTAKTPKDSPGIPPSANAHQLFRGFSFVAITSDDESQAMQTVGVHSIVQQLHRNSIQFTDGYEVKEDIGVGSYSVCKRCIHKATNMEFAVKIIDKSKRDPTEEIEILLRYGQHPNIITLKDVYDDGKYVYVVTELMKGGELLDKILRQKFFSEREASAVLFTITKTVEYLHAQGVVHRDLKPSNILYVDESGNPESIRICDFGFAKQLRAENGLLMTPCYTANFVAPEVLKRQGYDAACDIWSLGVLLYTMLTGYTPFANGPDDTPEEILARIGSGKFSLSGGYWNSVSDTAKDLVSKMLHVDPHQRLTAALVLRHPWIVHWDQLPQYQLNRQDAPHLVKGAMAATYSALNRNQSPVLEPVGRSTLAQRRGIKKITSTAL
RSKL1 domain1, sequence (Q96S38 whole entry, the tested form may be a part): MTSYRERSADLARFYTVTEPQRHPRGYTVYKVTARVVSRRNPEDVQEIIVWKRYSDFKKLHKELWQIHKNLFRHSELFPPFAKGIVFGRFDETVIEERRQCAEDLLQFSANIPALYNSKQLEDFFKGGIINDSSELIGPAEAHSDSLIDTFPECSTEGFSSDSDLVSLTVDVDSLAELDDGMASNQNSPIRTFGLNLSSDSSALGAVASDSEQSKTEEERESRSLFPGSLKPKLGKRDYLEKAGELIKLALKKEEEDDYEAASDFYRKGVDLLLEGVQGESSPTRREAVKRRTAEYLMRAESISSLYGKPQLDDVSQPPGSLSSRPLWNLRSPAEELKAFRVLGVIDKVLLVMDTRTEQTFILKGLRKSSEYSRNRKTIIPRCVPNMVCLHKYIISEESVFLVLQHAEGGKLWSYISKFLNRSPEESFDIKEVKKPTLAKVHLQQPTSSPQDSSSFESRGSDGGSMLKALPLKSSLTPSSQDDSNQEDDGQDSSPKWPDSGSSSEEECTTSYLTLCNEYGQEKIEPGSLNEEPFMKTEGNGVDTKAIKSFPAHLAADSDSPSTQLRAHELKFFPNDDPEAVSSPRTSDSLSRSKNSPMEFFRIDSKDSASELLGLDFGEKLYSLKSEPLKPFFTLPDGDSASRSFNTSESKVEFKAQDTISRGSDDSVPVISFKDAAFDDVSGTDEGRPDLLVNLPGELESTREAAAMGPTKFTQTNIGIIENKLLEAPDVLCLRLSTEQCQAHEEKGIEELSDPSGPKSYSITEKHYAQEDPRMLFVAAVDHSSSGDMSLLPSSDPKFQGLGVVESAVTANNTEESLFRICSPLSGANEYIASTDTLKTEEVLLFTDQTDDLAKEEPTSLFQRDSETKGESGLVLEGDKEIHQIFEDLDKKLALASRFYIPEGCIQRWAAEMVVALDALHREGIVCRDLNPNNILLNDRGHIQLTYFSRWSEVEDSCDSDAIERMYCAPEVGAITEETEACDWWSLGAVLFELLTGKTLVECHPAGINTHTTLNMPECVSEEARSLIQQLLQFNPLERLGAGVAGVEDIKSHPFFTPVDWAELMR
eEF2K, sequence (O00418 whole entry): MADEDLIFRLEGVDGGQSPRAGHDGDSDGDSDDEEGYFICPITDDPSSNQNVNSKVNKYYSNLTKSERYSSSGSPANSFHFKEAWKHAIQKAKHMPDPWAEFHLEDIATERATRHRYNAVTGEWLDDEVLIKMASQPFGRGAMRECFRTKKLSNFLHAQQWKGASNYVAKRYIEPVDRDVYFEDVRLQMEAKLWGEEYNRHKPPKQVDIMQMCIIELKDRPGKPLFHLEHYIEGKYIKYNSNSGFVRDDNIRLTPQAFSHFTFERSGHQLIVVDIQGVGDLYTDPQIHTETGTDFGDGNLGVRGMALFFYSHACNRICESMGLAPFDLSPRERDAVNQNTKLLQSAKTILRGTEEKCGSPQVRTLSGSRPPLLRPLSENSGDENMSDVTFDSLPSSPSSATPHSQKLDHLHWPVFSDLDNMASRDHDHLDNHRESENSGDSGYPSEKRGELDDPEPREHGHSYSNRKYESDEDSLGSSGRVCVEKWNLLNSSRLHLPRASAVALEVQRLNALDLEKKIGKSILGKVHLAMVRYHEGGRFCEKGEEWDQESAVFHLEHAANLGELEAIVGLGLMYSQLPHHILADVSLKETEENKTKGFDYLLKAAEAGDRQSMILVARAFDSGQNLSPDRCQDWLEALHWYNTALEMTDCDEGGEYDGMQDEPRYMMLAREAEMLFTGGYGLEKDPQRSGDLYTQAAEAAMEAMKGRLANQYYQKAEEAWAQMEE
Erk5, sequence (Q13164 whole entry, the tested form may be a part): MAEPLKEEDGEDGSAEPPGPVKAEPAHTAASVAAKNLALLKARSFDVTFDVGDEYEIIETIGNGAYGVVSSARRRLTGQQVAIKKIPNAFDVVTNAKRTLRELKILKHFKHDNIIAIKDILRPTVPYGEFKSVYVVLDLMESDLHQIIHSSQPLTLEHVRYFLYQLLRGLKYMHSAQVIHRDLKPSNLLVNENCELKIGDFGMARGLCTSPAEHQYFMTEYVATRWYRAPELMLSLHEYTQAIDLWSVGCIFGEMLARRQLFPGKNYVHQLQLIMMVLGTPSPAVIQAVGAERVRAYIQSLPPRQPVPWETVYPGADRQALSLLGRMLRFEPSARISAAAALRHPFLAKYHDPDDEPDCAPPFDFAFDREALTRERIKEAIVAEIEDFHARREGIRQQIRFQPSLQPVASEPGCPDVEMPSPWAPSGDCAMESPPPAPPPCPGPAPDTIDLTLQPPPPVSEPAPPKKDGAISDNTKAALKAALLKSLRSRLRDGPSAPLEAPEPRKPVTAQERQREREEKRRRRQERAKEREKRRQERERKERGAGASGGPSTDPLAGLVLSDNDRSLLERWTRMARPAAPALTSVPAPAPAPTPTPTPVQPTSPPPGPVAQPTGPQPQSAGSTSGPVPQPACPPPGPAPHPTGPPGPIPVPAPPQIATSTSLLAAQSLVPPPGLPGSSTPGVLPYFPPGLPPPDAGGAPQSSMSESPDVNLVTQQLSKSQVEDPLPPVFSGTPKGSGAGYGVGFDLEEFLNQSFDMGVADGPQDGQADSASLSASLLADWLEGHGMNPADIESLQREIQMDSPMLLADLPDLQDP
GSK3B, sequence (P49841 whole entry): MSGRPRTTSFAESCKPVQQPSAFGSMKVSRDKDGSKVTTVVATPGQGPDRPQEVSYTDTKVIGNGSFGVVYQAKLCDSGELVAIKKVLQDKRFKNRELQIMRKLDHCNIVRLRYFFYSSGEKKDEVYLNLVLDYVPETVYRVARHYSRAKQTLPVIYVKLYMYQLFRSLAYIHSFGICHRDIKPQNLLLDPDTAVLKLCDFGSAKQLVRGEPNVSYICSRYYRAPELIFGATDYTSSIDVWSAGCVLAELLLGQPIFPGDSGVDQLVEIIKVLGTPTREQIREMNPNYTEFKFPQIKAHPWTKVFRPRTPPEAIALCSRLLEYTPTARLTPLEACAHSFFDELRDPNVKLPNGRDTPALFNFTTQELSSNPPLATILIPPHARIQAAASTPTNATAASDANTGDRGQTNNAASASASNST
CDC2, sequence (P06493 whole entry): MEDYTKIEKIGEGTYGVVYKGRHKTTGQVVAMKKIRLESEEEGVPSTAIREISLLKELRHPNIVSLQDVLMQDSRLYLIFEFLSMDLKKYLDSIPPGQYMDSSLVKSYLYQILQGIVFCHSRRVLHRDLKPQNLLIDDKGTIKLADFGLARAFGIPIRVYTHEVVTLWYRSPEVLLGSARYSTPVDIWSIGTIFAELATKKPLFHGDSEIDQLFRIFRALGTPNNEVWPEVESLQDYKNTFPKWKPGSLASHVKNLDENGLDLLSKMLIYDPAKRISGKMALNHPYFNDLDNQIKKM

`Cn1cc(-c2c[nH]c3ncnc(N4CCOCC4)c23)cn1` [Example 1, 5-(1-Methyl-1H-pyrazol-4-yl)-4-(morpholin-4-yl)-7H-pyrrolo[2,3-d]pyrimidine] was tested, and the IC50 [1] was 13 nM, the inhibition at 0.1 µM (GCK; 0.1 μM) was 4.4% and the inhibition at 1 µM (GCK; 1 μM) was -6.7%. For the same molecule, the percent inhibition (JNK1, JNK2, JNK3; 0.1 μM) was 7.1%, the percent inhibition (JNK1, JNK2, JNK3; 1 μM) was 7.7% and the inhibition at 0.1 µM (Erk5; 0.1 μM) was -32.8%. For the same molecule, the inhibition at 1 µM (Erk5; 1 μM) was -41.9%, the percent inhibition (RSK1, RSK2, RSK3 domain1; 0.1 μM) was 3% and the percent inhibition (RSK1, RSK2, RSK3 domain1; 1 μM) was 18.7%. It also gave an inhibition at 0.1 µM (RSK2 domain2; 0.1 μM) of 0.6%, an inhibition at 1 µM (RSK2 domain2; 1 μM) of 9.1% and an inhibition at 0.1 µM (NuaK2; 0.1 μM) of 3.6%. It also gave an inhibition at 1 µM (NuaK2; 1 μM) of 8.9%, an inhibition at 0.1 µM (PAN3; 0.1 μM) of 0.6% and an inhibition at 1 µM (PAN3; 1 μM) of 0.8%. The inhibition at 0.1 µM (CDC2; 0.1 μM) was -4%, the inhibition at 1 µM (CDC2; 1 μM) was 14.7% and the inhibition at 0.1 µM (GSK3B; 0.1 μM) was 2.4%. The inhibition at 1 µM (GSK3B; 1 μM) was -5.2%, the inhibition at 0.1 µM (ULK3; 0.1 μM) was -1.9% and the inhibition at 1 µM (ULK3; 1 μM) was 8%. The inhibition at 0.1 µM (PIK3CG; 0.1 μM) was -18.6%, the inhibition at 1 µM (PIK3CG; 1 μM) was -62.9% and the inhibition at 0.1 µM (SMG1; 0.1 μM) was -1.3%. For the same molecule, the inhibition at 1 µM (SMG1; 1 μM) was -19.2%, the inhibition at 0.1 µM (SRC; 0.1 μM) was 1.5% and the inhibition at 1 µM (SRC; 1 μM) was 9.7%. For the same molecule, the inhibition at 0.1 µM (RSKL1 domain1; 0.1 μM) was 5.5%, the inhibition at 1 µM (RSKL1 domain1; 1 μM) was -0.2% and the inhibition at 0.1 µM (SLK; 0.1 μM) was 22.9%. For the same molecule, the inhibition at 1 µM (SLK; 1 μM) was 50.6%, the inhibition at 0.1 µM (NDR1; 0.1 μM) was -19.6% and the inhibition at 1 µM (NDR1; 1 μM) was -7.8%. The inhibition at 0.1 µM (FES; 0.1 μM) was 4.3%, the inhibition at 1 µM (FES; 1 μM) was -0.9% and the inhibition at 0.1 µM (NEK9; 0.1 μM) was -0.9%. For the same molecule, the inhibition at 1 µM (NEK9; 1 μM) was 12.6%, the percent inhibition (Wnk1, Wnk2, Wnk4; 0.1 μM) was −15% and the percent inhibition (Wnk1, Wnk2, Wnk4; 1 μM) was −13.5%. The inhibition at 0.1 µM (RIPK3; 0.1 μM) was 5.6%, the inhibition at 1 µM (RIPK3; 1 μM) was -4.2% and the inhibition at 0.1 µM (PIK3C3; 0.1 μM) was 23.3%. It also gave an inhibition at 1 µM (PIK3C3; 1 μM) of 4.8%, an inhibition at 0.1 µM (CDK2; 0.1 μM) of -12.1% and an inhibition at 1 µM (CDK2; 1 μM) of 9.5%. The inhibition at 0.1 µM (MAP2K1; 0.1 μM) was 3.5%, the inhibition at 1 µM (MAP2K1; 1 μM) was 17% and the inhibition at 0.1 µM (MLK3; 0.1 μM) was 1.4%. It also gave an inhibition at 1 µM (MLK3; 1 μM) of 4.5%, an inhibition at 0.1 µM (eEF2K; 0.1 μM) of -9.6% and an inhibition at 1 µM (eEF2K; 1 μM) of -6.5%. It also gave an inhibition at 0.1 µM (TLK1; 0.1 μM) of 7.8%, an inhibition at 1 µM (TLK1; 1 μM) of 2.7% and an inhibition at 0.1 µM (LRRK2; 0.1 μM) of 69%. For the same molecule, the inhibition at 1 µM (LRRK2; 1 μM) was 88.1%, the inhibition at 0.1 µM (JAK1 domain2; 0.1 μM) was -8.1% and the inhibition at 1 µM (JAK1 domain2; 1 μM) was -13.7%. The inhibition at 0.1 µM (ZAP70; 0.1 μM) was -23.2%, the inhibition at 1 µM (ZAP70; 1 μM) was 3.1% and the inhibition at 0.1 µM (NDR2; 0.1 μM) was 22.8%. It also gave an inhibition at 1 µM (NDR2; 1 μM) of 31.2%, an inhibition at 0.1 µM (CaMK2g; 0.1 μM) of -16.9% and an inhibition at 1 µM (CaMK2g; 1 μM) of -15.5%. It also gave a percent inhibition (Wnk1, Wnk2, Wnk3; 0.1 μM) of −18.8%, a percent inhibition (Wnk1, Wnk2, Wnk3; 1 μM) of −24% and an inhibition at 0.1 µM (TBK1; 0.1 μM) of 0.1%. For the same molecule, the inhibition at 1 µM (TBK1; 1 μM) was 13.4%.
